Data on ten compounds can be found in patent US20260083704A1, “LXR MODULATORS WITH BICYCLIC CORE MOIETY FOR TREATING DYSLIPIDEMIAS” (OrsoBio, Inc., priority 2022, published 2026).

pEC50: −log10 of the molar value. Some results are limits rather than exact numbers.

The target in one experiment is T1, LXRβ (Homo sapiens, UniProt P55055).
T1 construct: LXRβ (amino acids 156-461); expressed in transfected cells; host or cells: HEK293
T1 sequence (P55055 156-460): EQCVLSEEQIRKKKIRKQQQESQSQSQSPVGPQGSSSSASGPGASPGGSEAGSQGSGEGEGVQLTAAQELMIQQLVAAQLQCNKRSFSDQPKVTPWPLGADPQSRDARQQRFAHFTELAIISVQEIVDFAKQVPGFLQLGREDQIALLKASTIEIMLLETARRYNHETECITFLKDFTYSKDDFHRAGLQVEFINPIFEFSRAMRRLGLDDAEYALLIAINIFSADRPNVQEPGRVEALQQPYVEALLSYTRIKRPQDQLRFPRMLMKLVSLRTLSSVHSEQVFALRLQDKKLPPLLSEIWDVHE
Description: LXR Gal4 reporter transient transfection assay (mammalian two-hybrid, HEK293), LXRβ. In kind it is cell-based. The settings on record: ligand-binding domain (LBD) of LXRβ, HEK293; read-out: LBD-M2H Gal4β. The essentials:
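HEK293 cells transiently co-transfected with full-length or LBD LXRα/LXRβ fused to NFkB activation domain, GAL4-DBD-fused SRC1 or NCoR cofactor domain, GAL4-responsive firefly luciferase reporter and Renilla control. Compound added 4 h post-transfection (≤0.2% DMSO), incubated 16 h; firefly and Renilla luminescence read sequentially.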

For experiment [1], the target named is T2, GST-LXRβ ligand-binding domain (Homo sapiens, UniProt P55055).
T2 construct: amino acids 156-461; NP009052; made in house; host or cells: E. coli
T2 sequence (P55055 156-460 limits assumed): T1 sequence (P55055 156-460)
Put plainly: TR-FRETβ activity assay (NCoA3 coactivator peptide recruitment). The class given is biochemical. The following applies: 1 μM 24(S)-25-epoxycholesterol prestimulation. In outline:
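E. coli-expressed GST-LXRβ LBD (aa 156-461, 76 nM) with biotinylated NCoA3 peptide (400 nM) in Tris/HCl pH 6.8 containing 1 μM 24(S)-25-epoxycholesterol agonist. Compounds tested at 50 μM down to 0.002 μM in triplicate. TR-FRET (Tb cryptate/XL665, ex 340, em 615/665 nm) read after 1 h at 4° C.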

For another experiment, the target named is T3, LXRα (Homo sapiens, UniProt Q13133).
T3 construct: expressed in transfected cells; host or cells: HEK293
T3 sequence (Q13133 155-447): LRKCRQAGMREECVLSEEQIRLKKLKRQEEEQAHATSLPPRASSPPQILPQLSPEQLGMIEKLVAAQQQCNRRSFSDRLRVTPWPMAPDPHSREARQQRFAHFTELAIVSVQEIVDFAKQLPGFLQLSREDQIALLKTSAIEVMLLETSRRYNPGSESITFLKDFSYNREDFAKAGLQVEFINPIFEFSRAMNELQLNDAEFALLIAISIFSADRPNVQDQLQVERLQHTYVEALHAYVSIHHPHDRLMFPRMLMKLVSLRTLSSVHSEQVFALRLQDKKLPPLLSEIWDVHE
Description: LXR Gal4 reporter transient transfection assay (mammalian two-hybrid, HEK293), LXRα. The class given is cell-based. The following applies: ligand-binding domain (LBD) of LXRα, HEK293; read-out: LBD-M2H Gal4α. Here is the method:
LXRα and LXRβ activity status was determined via detection of interaction with coactivator and corepressor proteins in mammalian two-hybrid experiments (M2H). For this, via transient transfection the full length (FL) proteins of LXRα (amino acids 1-447; NP005684; SEQ ID NO:1) or LXRβ-(amino acids 1-461; NP009052; SEQ ID NO:2) or the ligand-binding domains (LBD) of LXRα (amino acids 155-447 SEQ ID NO:3) or LXRβ (amino acids 156-461; SEQ ID NO:4) were expressed from pCMV-AD (Stratagene) as fusions to the transcriptional activation domain of NFkB. As cofactors, domains of either the steroid receptor coactivator 1 (SRC1; amino acids 552-887; SEQ ID NO:5) or of the corepressor NCoR (amino acids 1906-2312; NP006302; SEQ ID NO:6) were expressed as fusions to the DNA binding domain of the yeast transcription factor GAL4 (from pCMV-BD; Stratagene). Interaction was monitored via activation of a coexpressed Firefly Luciferase Reporter gene under control of a promoter containing repetitive GAL4 response elements (vector pFRLuc; Stratagene). Transfection efficiency was controlled via cotransfection of constitutively active pRL-CMV Renilla reniformis luciferase reporter (Promega). HEK293 cells were grown in minimum essential medium (MEM) with 2 mM L-glutamine and Earle's balanced salt solution supplemented with 8.3% fetal bovine serum, 0.1 mM non-essential amino acids, 1 mM sodium pyruvate, at 37° C. in 5% CO2. 3.5×10^4 cells/well were plated in 96-well cell culture plates in growth medium supplemented with 8.3% fetal bovine serum for 16-20 h to ˜90% confluency. For transfection, medium was taken off and LXR and cofactor expressing plasmids as well as the reporter plasmids are added in 30 μL OPTIMEM/well including polyethylene-imine (PEI) as vehicle. Typical amounts of plasmids transfected/well: pCMV-AD-LXR (5 ng), pCMV-BD-cofactor (5 ng), pFR-Luc (100 ng), pRL-CMV (0.5 ng). Compound stocks were prepared in DMSO, prediluted in MEM to a total volume of 120 μL, and added 4 h after addition of the transfection mixture (final vehicle concentration not exceeding 0.2%). Cells were incubated for additional 16 h, lysed for 10 min in 1×Passive Lysis Buffer (Promega) and Firefly and Renilla luciferase activities were measured sequentially in the same cell extract using buffers containing D-luciferine and coelenterazine, respectively. Measurements of luminescence were done in a BMG-luminometer.
The potencies of Compound 21/3 and its analog, Compound pre-6/3, against LXRα and LXRβ were evaluated in biochemical binding assays, cellular mammalian two-hybrid (M2H) interaction assays evaluating nuclear receptor co-repressor (NCOR) recruitment, and cellular reporter assays evaluating transcriptional activity (Table 5).

Consider `Cc1cccc(S(=O)(=O)n2c(-c3cccc(N4CC(C(=O)O)C4)c3)c(-c3ccsc3C#N)c3cc(F)ccc32)c1` [3/8], for which the pEC50 was above 7.00 at LXRβ, 5.00 to 6.00 in experiment [1] and 6.00 to 7.00 at LXRα.

As for `COc1ccc(S(=O)(=O)n2c(-c3cccs3)c(-c3ccsc3C#N)c3ccccc32)cc1` [20/14], the pEC50 is above 7.00 at LXRβ, 6.00 to 7.00 in experiment [1] and above 7.00 at LXRα.

As for `N#Cc1sccc1-c1c(-c2cccs2)n(S(=O)(=O)c2ccc(Cl)cc2)c2ccc(O)cc12` [Compound 13], the pEC50 is above 7.00 on LXRβ, 6.00 to 7.00 in experiment [1] and above 7.00 at LXRα.

Regarding `N#Cc1sccc1-c1c(-c2cccs2)n(S(=O)(=O)c2ccc(Cl)cc2)c2ccc(OCC(=O)O)cc12` [Compound 15], the values for the pEC50 (at LXRβ; in experiment [1]; on LXRα) were below 5.00, below 5.00 and 5.00 to 6.00, respectively.

For the compound `O=S(=O)(c1ccc(Cl)cc1)n1c(-c2cccs2)c(-c2ccsc2Cl)c2ccccc21` [Compound 20], the results for the pEC50 (at LXRβ; in experiment [1]; on LXRα) were above 7.00, 6.00 to 7.00 and above 7.00, respectively.

As for `N#Cc1sccc1-c1c(-c2cccs2)n(S(=O)(=O)c2ccc(Cl)cc2)c2ccc(C(=O)O)cc12` [Compound 23], the pEC50 at LXRβ was 6.00 to 7.00; in experiment [1] it was below 5.00; on LXRα it was 6.00 to 7.00.

For the compound `N#Cc1sccc1-c1c(-c2cncs2)n(S(=O)(=O)c2ccc(Cl)cc2)c2ccccc12` [Compound 25], the pEC50 on LXRβ is above 7.00; in experiment [1], 5.00 to 6.00; on LXRα, 6.00 to 7.00.

As for `COc1ccc(S(=O)(=O)n2c(-c3ccc(CCC(N)=O)cc3)c(-c3ccsc3C#N)c3ccccc32)cc1` [Compound 28], the pEC50 at LXRβ is 6.00 to 7.00; in experiment [1], 5.00 to 6.00; on LXRα, 5.00 to 6.00.

For the compound `Cc1ccc(S(=O)(=O)n2c(-c3cccc(C4CC4C(=O)O)c3)c(-c3ccsc3C#N)c3ccccc32)cc1` (stereo not drawn) [Compound 30], the pEC50 on LXRβ is above 7.00; in experiment [1] it was 6.00 to 7.00; at LXRα, above 7.00.

With `Cc1ccc(S(=O)(=O)n2c(-c3cccc(-c4cccc(C(=O)NS(C)(=O)=O)c4)c3)c(-c3ccsc3C#N)c3ccccc32)cc1` [Compound 32], the pEC50 (at LXRβ; in experiment [1]; on LXRα) was 6.00 to 7.00 throughout.
